The values below come from US8796457B2, “Compound useful for the treatment of degenerative and inflammatory diseases” (Galapagos NV, priority 2009, dated 2014).

One data set deals with JAK2 (Homo sapiens (Human), UniProt O60674). As to the kind of experiment: JAK2 Ki determination assay (polyGT, 33P filter plate). The format is biochemical. Conditions: Lineweaver-Burk; polyGT substrate, 33P readout. From the text: For the determination of Ki, different amounts of inhibitor were mixed with the enzyme and the enzymatic reaction was followed as a function of ATP concentration. […] 0.025 mU of JAK2 (Invitrogen, PV4210) was used in the assay.

Data set [1] relates to HeLa cells, STAT signalling. Nature of the data set: JAK-STAT signalling assay (pSTAT1(2)-luciferase reporter, OSM trigger). The format is cell-based. Conditions: human OSM 33 ng/mL. On the procedure:
HeLa cells were maintained in Dulbecco's Modified Eagle's Medium (DMEM) containing 10% heat inactivated fetal calf serum, 100 U/mL penicillin and 100 μg/mL streptomycin. HeLa cells were used at 70% confluence for transfection. 20,000 cells in 87 μL cell culture medium were transiently transfected with 40 ng pSTAT1(2)-luciferase reporter (Panomics), 8 ng of LacZ reporter as internal control reporter and 52 ng of pBSK using 0.32 μL Jet-PEI (Polyplus) as transfection reagent per well in 96-well plate format. After overnight incubation at 37° C., 10% CO2, transfection medium was removed. 75 μL of DMEM+1.5% inactivated fetal calf serum was added. 15 μL of compound at 6.7× concentration was added for 60 min and then 10 μL of human OSM (Peprotech) at 33 ng/mL final concentration. […]
40 μL of cell lysate was used to read β-galactosidase activity by adding 180 μL βGal solution (30 μl ONPG 4 mg/mL+150 μL β-Galactosidase buffer (0.06 M Na2HPO4, 0.04 M NaH2PO4, 1 mM MgCl2)) for 20 min. The reaction was stopped by addition of 50 μL Na2CO3 1 M. Absorbance was read at 405 nm
Luciferase activity was measured using 40 μL cell lysate plus 40 μl of Steadylite® as described by the manufacturer (Perkin Elmer), on the Envision (Perkin Elmer). […]
In general terms: A reporter such as luciferase makes a cellular process visible.

Another data set has as its system TNF release. Nature of the data set: Septic shock model (LPS induced TNF release). Conditions: 30 mg/kg po, LPS ip, statistically significant. The class given is in vivo, mouse. On the procedure: Injection of lipopolysaccharide (LPS) induces a rapid release of soluble tumour necrosis factor (TNF-alpha) into the periphery. This model is used to analyse prospective blockers of TNF release in vivo.
Six BALB/cJ female mice (20 g) per group are treated at the intended dosing once, po. Thirty minutes later, LPS (15 μg/kg; E. Coli serotype 0111:B4) is injected ip. Ninety minutes later, mice are euthanized and blood is collected. Circulating TNF alpha levels are determined using commercially available ELISA kits. Dexamethasone (5 μg/kg) is used as a reference anti-inflammatory compound. Selected compounds are tested at one or multiple doses, e.g. 3 and/or 10 and/or 30 mg/kg, po.

A short description of data set [2]: Caco2 permeability (bi-directional). The class given is in vitro ADME. The following applies: human, pH 7.4. On the procedure: Bi-directional Caco-2 assays were performed as described below. Caco-2 cells were obtained from European Collection of Cell Cultures (ECACC, cat 86010202) and used after a 21 day cell culture in 24-well Transwell plates (Fisher TKT-545-020B).
2×10^5 cells/well were seeded in plating medium consisting of DMEM+GlutaMAXI+1% NEAA+10% FBS (FetalClone II)+1% Pen/Strep. The medium was changed every 2-3 days.
Test and reference compounds (propranolol and rhodamine123 or vinblastine, all purchased from Sigma) were prepared in Hanks' Balanced Salt Solution containing 25 mM HEPES (pH7.4) and added to either the apical (125 μL) or basolateral (600 μL) chambers of the Transwell plate assembly at a concentration of 10 μM with a final DMSO concentration of 0.25%.
50μM Lucifer Yellow (Sigma) was added to the donor buffer in all wells to assess integrity of the cell layers by monitoring Lucifer Yellow permeation. […]
Lucifer yellow was measured with a Spectramax Gemini XS (Ex 426 nm and Em 538 nm) in a clean 96 well plate containing 150 μL of liquid from basolateral and apical side.
Concentrations of compound in the samples were measured by high performance liquid-chromatography/mass spectroscopy (LC-MS/MS).
The Efflux ratios, as an indication of active efflux from the apical cell surface, were calculated using the ratio of PappB>A/Papp A>B.

Structures are written as SMILES.

Sequence of JAK2 (O60674 849-1124): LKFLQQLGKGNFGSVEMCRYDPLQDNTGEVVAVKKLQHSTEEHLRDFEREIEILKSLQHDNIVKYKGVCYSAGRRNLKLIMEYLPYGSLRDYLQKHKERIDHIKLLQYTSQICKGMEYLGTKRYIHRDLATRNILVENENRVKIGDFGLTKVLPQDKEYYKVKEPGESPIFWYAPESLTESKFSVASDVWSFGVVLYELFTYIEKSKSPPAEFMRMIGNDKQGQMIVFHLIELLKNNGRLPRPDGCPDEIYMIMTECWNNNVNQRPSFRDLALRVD

One may read the Ki as the dissociation constant of the complex between target and ligand, obtained from inhibition or displacement. What is called EC50 is the concentration needed to bring the measured effect to its halfway point. Read a low EC50 as a more potent agent. For orientation: Papp means the rate of passage across a membrane or cell layer, normalised by area and donor concentration. Low readings indicate slow passage, high ones fast passage. What is called efflux ratio is the permeability from basolateral to apical divided by that in the opposite direction, in the common usage. `CC1(C)CN(C(=O)c2ccc(-c3cccc4nc(NC(=O)C5CC5)nn34)cc2)C1` [Compound 1, Cyclopropanecarboxylic acid{5-[4-(3,3-dimethyl-azetidine-1-carbonyl)-phenyl]-[1,2,4]triazolo[1,5-a]pyridin-2-yl}-amide]: the Ki at JAK2 worked out at 126 nM. In data set [1], this compound displayed an EC50 of 539 ± 130 nM. The “reduction in the TNF release” value in the data set with TNF release was greater than 50%. The same compound gave a Papp at 1 h, 10 μM in data set [2] (Caco-2, 10 μM, 1 hour, pH7.4) of 7.8 ± 0.8 ×10⁻⁶ cm/s. Also, the efflux ratio at 1 h, 10 μM in data set [2] (Caco-2, Papp B>A / Papp A>B) was 6.1 ± 0.6.
